Experimental data reported in patent US8598344B2, “CDKI pathway inhibitors and uses thereof” (Senex Biotechnology, priority 2009, dated 2013).

Experiments:
[1] = target: CDK7 (Homo sapiens, UniProt P50613); test: KinomeScan competition binding assay; set-up: purchased KinomeScan, a division of Ambit Biosciences; conditions: 10 μM compound
Text: This similarity led us to test SNX14 for the ability to inhibit 285 kinases, using the services of KinaseProfiler of Millipore Corporation (285 kinases). […] The KINOMEscan assay has been described in detail in Fabian et al., Nat. Biotechnol. 23: 329 (2005) and Karaman et al., Nat. Biotechnol. 26: 127 (2008).
The KinomeScan assay is based on a competition binding assay that quantitatively measures the ability of a compound to compete with an immobilized, ATP site directed ligand. The assay is performed by combining three components: DNA-tagged kinase; immobilized ligand; and a test compound. The ability of the test compound to compete with the immobilized ligand is measured via quantitative PCR of the DNA tag. […] The CDKs tested by Millipore for inhibition with SNX14 included CDK1, CDK2, CDK3, CDK5, CDK7 and CDK9; none of these were inhibited to less than 49 percent of control (POC) activity. The CDKs tested by KinomeScan for the effect of Compound 1 included CDK2, CDK3, CDK4, CDK5, CDK7, CDK8, CDK9 and CDK19; aside from CDK8 and CDK19, the strongest inhibited CDK was CDK7 (33% POC binding). […] We have also determined the binding constant (Kd) for SNX14, compound 1, compound 20, compound 26, compound 43 and compound 14 in kinase assays for CDK8 and CDK19 (Table 1).

[2] = tested on: C26; test: Colon carcinoma cell proliferation, FACS count of live cells; format: cell-based, murine; conditions: 72 hrs, 2.5, 5 or 10 μM
Procedure: Inhibition of β-catenin, which is positively regulated by CDK8, was reported to inhibit proliferation of some colon carcinoma cell lines (Firestein et al., 2008). We have therefore determined the ability of compound 1 to inhibit the proliferation of several colon carcinoma cell lines, including human DLD1, HCT116, SW480 and murine C26. This analysis waqs carried out by incubating cells for 72 hrs in the presence of 0, 2.5, 5 or 10 μM compound 1, followed by FACS measurement of the number of live cells, as defined by the lack of uptake of membrane-impermeable dye propidium iodide.

CDK7, sequence (P50613 whole entry): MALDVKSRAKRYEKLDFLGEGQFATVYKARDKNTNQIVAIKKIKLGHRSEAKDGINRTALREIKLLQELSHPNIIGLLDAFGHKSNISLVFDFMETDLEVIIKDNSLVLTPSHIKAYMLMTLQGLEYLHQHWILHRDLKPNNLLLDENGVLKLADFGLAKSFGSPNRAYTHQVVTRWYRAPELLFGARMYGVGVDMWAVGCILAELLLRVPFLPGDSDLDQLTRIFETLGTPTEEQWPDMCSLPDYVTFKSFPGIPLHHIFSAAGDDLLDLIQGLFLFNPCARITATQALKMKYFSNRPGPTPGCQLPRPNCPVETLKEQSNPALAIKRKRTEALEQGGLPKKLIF

In the case of `N#Cc1ccc2ncnc(NCCc3ccccc3)c2c1` [compound 1], the “POC binding, CDK7” value [1] is reported as 33 % POC and the “growth of colon carcinoma cell line” value [2] is reported as “inhibited the growth”.
